Assay results taken from ChEMBL document CHEMBL2074316, “Multidrug resistance protein-mediated transport of chlorambucil and melphalan conjugated to glutathione” (Br J Cancer, 1998).

Biological target: Multidrug resistance-associated protein 1 (Homo sapiens, UniProt P33527)
Assay: TP_TRANSPORTER: uptake in membrane vesicle from MRP1-expressing HeLa cells
Format: functional, cell membranes

Sequence of Multidrug resistance-associated protein 1 (P33527 whole entry): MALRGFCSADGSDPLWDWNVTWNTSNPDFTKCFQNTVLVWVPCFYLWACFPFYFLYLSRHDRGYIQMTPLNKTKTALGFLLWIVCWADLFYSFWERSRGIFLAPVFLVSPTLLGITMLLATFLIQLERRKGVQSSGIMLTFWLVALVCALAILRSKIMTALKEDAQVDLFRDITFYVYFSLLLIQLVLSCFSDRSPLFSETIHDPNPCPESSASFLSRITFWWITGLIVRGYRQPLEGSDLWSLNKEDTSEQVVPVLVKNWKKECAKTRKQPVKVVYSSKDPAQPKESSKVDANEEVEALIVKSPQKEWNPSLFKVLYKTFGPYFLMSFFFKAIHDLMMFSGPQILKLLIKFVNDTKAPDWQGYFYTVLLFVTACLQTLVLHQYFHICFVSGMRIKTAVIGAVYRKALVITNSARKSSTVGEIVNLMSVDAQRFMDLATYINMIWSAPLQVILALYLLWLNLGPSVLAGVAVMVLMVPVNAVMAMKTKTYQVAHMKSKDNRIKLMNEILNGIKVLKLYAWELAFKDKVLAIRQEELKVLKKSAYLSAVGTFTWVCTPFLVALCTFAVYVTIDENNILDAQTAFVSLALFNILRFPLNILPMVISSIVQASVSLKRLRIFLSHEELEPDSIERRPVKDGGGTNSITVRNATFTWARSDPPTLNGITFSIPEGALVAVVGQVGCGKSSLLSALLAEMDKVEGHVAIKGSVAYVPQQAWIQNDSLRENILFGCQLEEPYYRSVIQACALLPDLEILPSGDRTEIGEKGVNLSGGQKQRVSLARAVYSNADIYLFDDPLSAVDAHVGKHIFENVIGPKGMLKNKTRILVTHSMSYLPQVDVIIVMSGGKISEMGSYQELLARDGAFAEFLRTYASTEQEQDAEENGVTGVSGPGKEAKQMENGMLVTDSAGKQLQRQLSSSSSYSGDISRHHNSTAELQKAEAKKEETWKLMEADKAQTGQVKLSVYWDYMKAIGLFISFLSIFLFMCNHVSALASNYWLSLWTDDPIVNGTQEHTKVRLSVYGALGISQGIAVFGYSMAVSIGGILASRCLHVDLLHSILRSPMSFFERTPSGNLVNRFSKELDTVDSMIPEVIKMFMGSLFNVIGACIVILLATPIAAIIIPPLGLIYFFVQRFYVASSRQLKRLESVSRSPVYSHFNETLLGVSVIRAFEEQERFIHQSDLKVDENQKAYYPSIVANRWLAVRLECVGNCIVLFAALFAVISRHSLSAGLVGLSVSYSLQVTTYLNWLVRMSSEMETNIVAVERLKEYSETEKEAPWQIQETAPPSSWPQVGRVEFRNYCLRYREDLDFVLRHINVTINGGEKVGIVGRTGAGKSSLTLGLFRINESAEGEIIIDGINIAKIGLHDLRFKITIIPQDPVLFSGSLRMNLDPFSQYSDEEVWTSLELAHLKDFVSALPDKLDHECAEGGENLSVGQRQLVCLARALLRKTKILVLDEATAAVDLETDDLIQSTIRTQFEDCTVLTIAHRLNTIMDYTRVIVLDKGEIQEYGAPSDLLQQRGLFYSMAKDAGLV

Row | Activity | SMILES
1 | substrate [+] | NC(CCC(=O)NC(CSCCN(CCO)c1ccc(CCCC(=O)O)cc1)C(=O)NCC(=O)O)C(=O)O (configuration not stated) [MONOHYDROXY MONOGLUTATHIONYL CHLORAMBUCIL]
2 | substrate [+] | C=C(NCC(=O)O)[C@H](CSCCN(CCSC[C@H](NC(=O)CC[C@H](N)C(=O)O)C(=O)NCC(=O)O)c1ccc(CCCC(=O)O)cc1)NC(=O)CC[C@H](N)C(=O)O [BISGLUTATHIONYL CHLORAMBUCIL]
